55 compounds from ChEMBL document CHEMBL4834434, “Discovery of Novel and Potent N-Methyl-d-aspartate Receptor Positive Allosteric Modulators with Antidepressant-like Activity in Rodent Models” (J Med Chem, 2021) can be followed below.

Data set [1] addresses Glutamate NMDA receptor (Mus musculus) (UniProt P35436+Q91ZU9+Q03391+P35438+Q01097+Q01098+A2AIR5). Nature of the data set: Positive allosteric modulation of C57BL/6 mouse NMDA receptor assessed as fold change in compound potentiated NMDA-induced current relative to NMDA current alone at 30 uM measured after 15 to 30 mins by patch-clamp method. The data set is classed as tissue-based. As to conditions: Brain, filed as positive allosteric modulator, time 15-30 min.

A short description of data set [2]: Brain to blood partition coefficient of the compound. Type of data set: physicochemical, tissue-based. The note with it: read-out: logBB (converted).
The next data set relates to Mus musculus. As to the kind of experiment: Antidepressant activity in ICR mouse aassessed as inhibition of apomorphine-induced climbing behaviour at 10 mg/kg, ip administered prior to APO challenge and measured after 30 mins. Type of data set: functional, organism-based.

Calls of active or inactive are those of the source. The calls are words filed in the database; no cut-off is given here.

In the case of `Cc1cc(C)n(Cc2ccc(C(=O)Nc3ccc(Cl)cc3C(=O)NCCCCO)o2)n1`, in data set [1], the fold change (FC) was found to be 1.7. In addition, the Kp in data set [2] is 0.17. With `Cc1cc(C)n(Cc2ccc(C(=O)Nc3ccc(F)c(Cl)c3)s2)n1`, the fold change (FC) in data set [1] is 3.5. Moreover, the Kp in data set [2] was 1.26. Regarding `Cc1cc(C)n(Cc2ccc(C(=O)Nc3ccc(-c4ccccc4)cc3C)s2)n1`, in data set [1], the fold change (FC) came out at 2.8. The Kp in data set [2] is 0.501. In the case of `O=C(Nc1ccc(Cl)c(Cl)c1)c1ccc(Cn2nc(C(F)(F)F)cc2C(F)(F)F)o1`, the fold change (FC) in data set [1] worked out at 2.9. Moreover, in data set [2], the Kp was 3.98. For the compound `Cc1cc(C)n(Cc2ccc(C(=O)Nc3cc(Cl)cc(Cl)c3)s2)n1`, in data set [1], the fold change (FC) turned out to be 1.2. For the same compound, the Kp in data set [2] was 1.26. In the case of `Cc1cc(C)n(Cc2ccc(C(=O)Nc3ccccc3-c3ccccc3)o2)n1`, in data set [1], the fold change (FC) stood at 0.3. The Kp in data set [2] is 0.398. Take `Cc1cc(C)n(Cc2ccc(C(=O)Nc3ccc4ccccc4c3)o2)n1`: in data set [1], the fold change (FC) is 3.2. For the same compound, in data set [2], the Kp was 0.398. On the same counts, the results for `Cc1cc(C)n(Cc2ccc(C(=O)Nc3ccc4nc[nH]c4c3)s2)n1` are 0.1 and 0.158.

`Cc1ccc(C(=O)Nc2ccc(Br)cc2C)o1`: the fold change (FC) in data set [1] was -0.3. Moreover, the Kp in data set [2] is 1.32. For the compound `Cc1cc(C)n(Cc2ccc(C(=O)Nc3ccc(Cl)cc3C)s2)n1`, the fold change (FC) in data set [1] was -0.2. The Kp in data set [2] is 1.26.

As to `CCc1cc(Br)ccc1NC(=O)c1ccc(Cn2nc(C)cc2C)o1`, the fold change (FC) in data set [1] worked out at 2.6. In data set [2], the Kp was 0.631.

Consider `CCOc1ccc(NC(=O)c2ccc(Cn3nc(C)cc3C)s2)cc1OCC`, for which the fold change (FC) in data set [1] was 2.7. Besides, the Kp in data set [2] is 0.251. Consider `Cc1cc(C)n(Cc2ccc(C(=O)Nc3ccc(Br)cc3)o2)n1`, for which the fold change (FC) in data set [1] came to 1.2. For the same compound, the Kp in data set [2] was 0.646. Turning to `Cc1cc(C)n(Cc2ccc(C(=O)Nc3ccc(Br)cc3Cl)o2)n1`, in data set [1], the fold change (FC) worked out at 1.7. The Kp in data set [2] is 1. With `Cc1cc(C)n(Cc2ccc(C(=O)Nc3ccc4[nH]c(=O)[nH]c4c3)s2)n1`, the fold change (FC) in data set [1] stood at 0.3. Besides, the Kp in data set [2] was 0.0251.

With `Cc1cc(C)n(Cc2ccc(C(=O)Nc3ccc(Cl)cc3C)o2)n1`, the fold change (FC) in data set [1] is 3.2. In addition, in data set [2], the Kp is 0.724. `Cc1cc(Br)ccc1NC(=O)c1ccco1`: in data set [1], the fold change (FC) is -0.2. Further, the Kp in data set [2] was 1.41. As for `Cc1cc(NC(=O)c2ccc(Cn3nc(C(F)(F)F)cc3C(F)(F)F)o2)ccc1F`, the fold change (FC) in data set [1] is 5.5. The Kp in data set [2] is 2.51. On to `COc1cc(NC(=O)c2ccc(Cn3nc(C(F)(F)F)cc3C(F)(F)F)o2)cc(OC)c1`, for which the fold change (FC) in data set [1] turned out to be 2.5. In addition, the Kp in data set [2] is 1.26. On the same counts, the results for `Cc1cc(C(F)(F)F)n(Cc2ccc(C(=O)Nc3ccc(Br)cc3C)o2)n1` are 1.2 and 1.58.

Turning to `Cc1cc(C(F)(F)F)n(Cc2ccc(C(=O)Nc3ccc(Cl)cc3C)o2)n1`, the fold change (FC) in data set [1] came out at 7.7. Besides, the Kp in data set [2] is 1.58.

Regarding `Cc1cc(C)n(Cc2ccc(C(=O)Nc3ccc(-c4cccnc4)cc3C)s2)n1`, the fold change (FC) in data set [1] is 1.8. The Kp in data set [2] is 0.251.

On to `Cc1cc(C)n(Cc2ccc(C(=O)Nc3ccc(F)cc3Cl)o2)n1`, for which the fold change (FC) in data set [1] was found to be 0.9. Moreover, the Kp in data set [2] is 0.794.

`COC(=O)c1cc(F)ccc1NC(=O)c1ccc(Cn2nc(C(F)(F)F)cc2C(F)(F)F)o1`: the fold change (FC) in data set [1] was determined as 1.9. For the same compound, the Kp in data set [2] is 0.794. Regarding `Cc1cc(C)n(Cc2ccc(C(=O)Nc3ccc(-c4ccccc4)cc3)o2)n1`, in data set [1], the fold change (FC) turned out to be 6.7. For the same compound, the Kp in data set [2] is 0.398.

Turning to `COC(=O)c1cc(F)ccc1NC(=O)c1ccc(Cn2nc(C)cc2C)o1`, in data set [1], the fold change (FC) came out at 1.5. Further, the Kp in data set [2] is 0.158. On the same counts, the results for `Cc1cc(C)n(Cc2ccc(C(=O)Nc3ccc4cnccc4c3)s2)n1` are -0.2 and 0.316. On to `Cc1cc(C)n(Cc2ccc(C(=O)Nc3cc(F)cc(F)c3)s2)n1`, for which the fold change (FC) in data set [1] was determined as 5. Also, the Kp in data set [2] was 1. Turning to `COc1cc(NC(=O)c2ccc(Cn3nc(C)cc3C)s2)cc(OC)c1`, the fold change (FC) in data set [1] was 0.4. In addition, the Kp in data set [2] is 0.398.

Turning to `Cc1cc(C)n(Cc2ccc(C(=O)Nc3ccc(F)cc3C)o2)n1`, the fold change (FC) in data set [1] came to 1.9. In addition, in data set [2], the Kp was 0.631.

Turning to `Cc1cc(C)n(Cc2ccc(C(=O)Nc3ccc(Br)cc3C)s2)n1`, the fold change (FC) in data set [1] came to 1.5. Moreover, in data set [2], the Kp was 1.26. On to `Cc1cc(C)n(Cc2ccc(C(=O)Nc3ccccc3C)o2)n1`, for which the fold change (FC) in data set [1] came out at 1.2. Also, the Kp in data set [2] is 0.49. Regarding `Cc1cc(C)n(Cc2ccc(C(=O)Nc3ccc(F)c(C)c3)s2)n1`, the fold change (FC) in data set [1] amounted to 2.4. Moreover, the Kp in data set [2] is 0.794. With `Cc1nc2n(c(=O)c1CCN1CCC(c3noc4cc(F)ccc34)CC1)CCCC2`, in the data set on Mus musculus, the outcome was Active. For `Cc1cc(C)n(Cc2ccc(C(=O)Nc3ccccc3CCO)o2)n1`, the fold change (FC) in data set [1] came to 0.4. In addition, the Kp in data set [2] is 0.126. For the compound `Cc1cc(C)n(Cc2ccc(C(=O)Nc3ccc(Cl)cc3C(=O)NCCCO)o2)n1`, the fold change (FC) in data set [1] amounted to 2.9. Further, in data set [2], the Kp is 0.0331.

Turning to `Cc1cc(C)n(Cc2ccc(C(=O)Nc3ccc(Cl)cc3C(=O)NCc3ccccc3)o2)n1`, the fold change (FC) in data set [1] is 2.9. The Kp in data set [2] was 0.166. Regarding `Cc1cc(Br)ccc1NC(=O)c1ccc(Cn2nc(C(F)(F)F)cc2C(F)(F)F)o1`, the fold change (FC) in data set [1] was found to be 10.7. For the same compound, the Kp in data set [2] was 2.51. On the same counts, the results for `Cc1cc(C)n(Cc2ccc(C(=O)Nc3ccc(Cl)cc3CO)o2)n1` are 1.1 and 0.398. Regarding `Cc1cc(Br)ccc1NC(=O)c1ccc(Cl)o1`, the fold change (FC) in data set [1] was determined as 1.2. Also, in data set [2], the Kp was 2.09. Consider `O=C(Nc1ccc(Cl)cc1Cl)c1ccc(Cn2nc(C(F)(F)F)cc2C(F)(F)F)o1`, for which the fold change (FC) in data set [1] amounted to 0.4. Further, in data set [2], the Kp was 3.98. For `Cc1cc(C)n(Cc2ccc(C(=O)Nc3ccc4ccccc4c3)s2)n1`, the fold change (FC) in data set [1] worked out at 1.8. The Kp in data set [2] was 0.631. Consider `Cc1cc(F)ccc1NC(=O)c1ccc(Cn2nc(C(F)(F)F)cc2C(F)(F)F)o1`, for which the fold change (FC) in data set [1] was determined as 2.4. Moreover, the Kp in data set [2] is 2.51. With `Cc1cc(C)n(Cc2ccc(C(=O)Nc3ccccc3)o2)n1`, the fold change (FC) in data set [1] was 0.1. The Kp in data set [2] was 0.398. On the same counts, the results for `Cc1cc(C)n(Cc2ccc(C(=O)Nc3cccnc3)o2)n1` are 2.9 and 0.251.

In the case of `Cc1cc(Cl)ccc1NC(=O)c1ccc(Cn2nc(C(F)(F)F)cc2C(F)(F)F)o1`, in data set [1], the fold change (FC) worked out at 0.7. In data set [2], the Kp was 2.51. For the compound `Cc1cc(C)n(Cc2ccc(C(=O)Nc3ccc(Cl)cc3Cl)o2)n1`, the fold change (FC) in data set [1] came out at 4.7. Besides, in data set [2], the Kp was 1. As for `Cc1cc(C)n(Cc2ccc(C(=O)Nc3ccc(-c4ccccc4)cc3)s2)n1`, the fold change (FC) in data set [1] was determined as 2.8. The Kp in data set [2] is 0.398. For `CCCCNC(=O)c1cc(Cl)ccc1NC(=O)c1ccc(Cn2nc(C)cc2C)o1` the same measures were -0.6 and 0.257. `COC(=O)c1cc(Cl)ccc1NC(=O)c1ccc(Cn2nc(C)cc2C)o1`: the fold change (FC) in data set [1] stood at 0.1. Further, the Kp in data set [2] was 0.158. Take `Cc1cc(C)n(Cc2ccc(C(=O)Nc3ccc(Cl)c(F)c3)s2)n1`: the fold change (FC) in data set [1] was determined as 6. Further, in data set [2], the Kp was 1.26.

On to `Cc1cc(C)n(Cc2ccc(C(=O)Nc3ccc4cccnc4c3)s2)n1`, for which the fold change (FC) in data set [1] was determined as 1.1. In data set [2], the Kp is 0.316.

Consider `Cc1cc(C)n(Cc2ccc(C(=O)Nc3ccc(Cl)cc3C(=O)Nc3ccccc3)o2)n1`, for which the fold change (FC) in data set [1] came out at 1.2. Besides, in data set [2], the Kp is 0.195. Regarding `COC(=O)c1cc(Br)ccc1NC(=O)c1ccc(Cn2nc(C)cc2C)o1`, the fold change (FC) in data set [1] was 2.7. In addition, the Kp in data set [2] was 0.251. On to `CNc1ccccc1NC(=O)c1ccc(Cn2nc(C)cc2C)o1`, for which, in data set [1], the fold change (FC) came to 0.8. The Kp in data set [2] was 0.316.
